The values below come from article PMC9907956 (Journal of inorganic biochemistry, 2022).

Experiment [1] deals with T1, human CYP11B1 (Homo sapiens, UniProt P15538).
T1 sequence (P15538 25-503): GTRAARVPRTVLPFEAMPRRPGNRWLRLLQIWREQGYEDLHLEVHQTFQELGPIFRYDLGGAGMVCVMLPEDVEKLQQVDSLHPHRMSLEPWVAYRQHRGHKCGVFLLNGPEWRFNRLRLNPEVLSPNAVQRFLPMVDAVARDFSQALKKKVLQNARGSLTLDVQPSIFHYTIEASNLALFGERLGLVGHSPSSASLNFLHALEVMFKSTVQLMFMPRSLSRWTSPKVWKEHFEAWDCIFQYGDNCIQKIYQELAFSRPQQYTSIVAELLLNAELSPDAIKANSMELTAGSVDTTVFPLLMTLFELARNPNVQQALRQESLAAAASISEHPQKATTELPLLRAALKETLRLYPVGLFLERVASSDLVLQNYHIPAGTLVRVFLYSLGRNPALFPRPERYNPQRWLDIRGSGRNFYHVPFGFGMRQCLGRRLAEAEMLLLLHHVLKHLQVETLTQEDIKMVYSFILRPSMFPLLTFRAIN
Briefly: Spectral ligand binding titration. As to conditions: for Kd: dissociation constant Kd, 1 μM CYP11B1; for Amax: 0.2 μM CYP11B1, 5 cm cuvettes.

The target in experiment [2] is T2, adrenodoxin-CYP11B1 fusion enzyme (Homo sapiens, UniProt P10109+P15538).
T2 sequence (P10109+P15538 with tags, fused parts or gaps): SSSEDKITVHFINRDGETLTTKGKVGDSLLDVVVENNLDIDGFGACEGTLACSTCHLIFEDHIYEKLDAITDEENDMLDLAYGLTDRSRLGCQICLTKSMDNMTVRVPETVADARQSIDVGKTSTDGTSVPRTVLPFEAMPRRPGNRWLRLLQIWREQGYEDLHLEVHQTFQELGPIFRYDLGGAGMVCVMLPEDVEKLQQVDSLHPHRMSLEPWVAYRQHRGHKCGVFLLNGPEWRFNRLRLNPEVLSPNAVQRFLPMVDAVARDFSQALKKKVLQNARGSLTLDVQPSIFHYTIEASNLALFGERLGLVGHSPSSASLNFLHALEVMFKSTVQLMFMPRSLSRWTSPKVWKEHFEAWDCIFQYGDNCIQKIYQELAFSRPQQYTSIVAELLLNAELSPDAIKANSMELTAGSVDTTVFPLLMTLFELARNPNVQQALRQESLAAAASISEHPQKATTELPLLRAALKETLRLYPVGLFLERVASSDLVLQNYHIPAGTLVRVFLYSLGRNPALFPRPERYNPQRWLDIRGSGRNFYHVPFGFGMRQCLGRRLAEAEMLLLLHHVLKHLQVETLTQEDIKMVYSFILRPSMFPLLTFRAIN
Briefly: Spectral ligand binding titration of the adrenodoxin-CYP11B1 fusion enzyme.

Experiment [3] has as its target T1, human CYP11B1. The class given is biochemical. As to conditions: 1:1 condition to 1:40 excess adrenodoxin.
The test system of experiment [4] is CYP11B2. The experiment is described as follows: CYP11B2 substrate binding with varying adrenodoxin. Also noted: species or system human. As to conditions: over 40-fold range of excess adrenodoxin.
Experiment [5] concerns CYP11B2. Conditions: increasing adrenodoxin up to 40-fold; ref [8]; cited from earlier work.

One may read the Kd as the equilibrium constant for the complex coming apart. As for `C[C@]12CCC(=O)C=C1CC[C@@H]1[C@@H]2CC[C@@]2(C)[C@H]1CC[C@]2(O)C(=O)CO` [11-deoxycortisol], the Kd in experiment [1] (10-fold excess adrenodoxin) was found to be 12.2 µM; in experiment [1] (40-fold excess adrenodoxin), 7.3 µM; in experiment [1] (equimolar adrenodoxin (1 μM)), 20.8 µM; in experiment [1] (no adrenodoxin), 17 µM. The “fold increase of Amax/Kd (binding efficiency)” value in experiment [2] (adrenodoxin fused) is listed as “more than 11 fold”. The “fold difference of Kd, fusion vs same 1:1 ratio of non-fused proteins” value in experiment [2] (printed as higher) is ~ 5 fold. In addition, the “fold increase in catalytic efficiency (kcat/Km)” value in experiment [3] was “greater than 11 fold”.

As to `N#Cc1ccc([C@H]2CCc3cncn32)c(F)c1` [LCI699, osilodrostat], the Amax in experiment [1] (1:1 CYP11B1 to adrenodoxin) was determined as 0.015; in experiment [1] (CYP11B1 alone) it was 0.006.

As for `C[C@]12CC[C@H]3[C@@H](CCC4=CC(=O)CC[C@@]43C)[C@@H]1CC[C@@H]2C(=O)CO` [11-deoxycorticosterone], the “fold increase of Amax/Kd for CYP11B2” value in experiment [4] is given as “more than 3 fold”. Moreover, the “fold effect on Km for CYP11B2” value in experiment [5] is 1.6 fold.
